In US7732482B2, “Compound from Antrodia camphorata and the use thereof” (Simpson Biotech Co., Ltd., priority 2004, dated 2010):

Columns and labels:
TGF-β = TGF-β mediated inflammation and fibrosis, cell model (HSC-T6) and animal model (mouse liver fibrosis); details: overall conclusion from the tests of Example 2 (FIGS. 5-10)
Experimental: The EMSA used the following oligonucleotides: consensus Sp1 (f), 5′-GTTGCGGGGCGGGGCCGAGTG-3′; consensus Sp1 (r), 3′-AACGCCCCGCCCCGGCTCACG-5′. 30 pmol of each of the forward and reverse oligonucleotides placed in a volume of 23 μl of 1× Klenow (DNA polymerase) buffer were heated at 94° C. for 2 min and annealed at room temperature for 30 min. The annealed double-stranded oligonucleotides were end-labeled by a fill-in reaction using DNA polymerase (Klenow)(Promega). One unit of the DNA polymerase (Klenow) and […] of (−32P)dCTP (PerkinElmer Life Sciences) were added into the annealed oligonucleotides and the mixture was incubated at 30° C. for 15 min. […] Samples were analyzed on a 4% polyacrylamide gel (acrylamide/bisacrylamide 29:1 in 0.5×Tris borate-EDTA buffer) at 10 V/cm for 2.5 h. The gel was dried and analyzed by autoradiography. […]
Liver samples (0.5 g) were lysed (Reporter lysis buffer, Promega, Madison, Wis., USA), the protein were boiled in Laemmli's sample buffer and samples were subjected to 10% SDSPAGE followed by western immunoblotting. […] Immunoreactive bands were detected using the enhanced chemiluminescence (ECL) reagent using SuperSignal West Pico Chemiluminescent Substrate (Pierce, Rockford, Ill., USA). The light emitted by the chemical reaction was detected by exposure to Hyperfilm ECL (Amersham Biosciences, Uppsala, Sweden). […]

HSC-T6 cells = experiment: Measurement of intracellular ROS (DCFH-DA, flow cytometry and confocal microscopy); format: cell-based, mice; details: HSC-T6, TGF-β 2 ng/ml; FIGS. 2-4
Experimental: For visualization and analysis of intracellular ROS, the oxidation-sensitive probe DCFH-DA was used, as previously described. To analyze the net intracellular generation of ROS by flow cytometry, cells were detached by trypsinization after incubation in the absence or presence of the different factors. The cellular fluorescence intensity was measured after 30 min incubation with […] DCFH-DA, by using the same flow cytometer described above. Propidium iodide (0.005%) was used to detect dead cells. For each analysis, 10,000 events were recorded. For confocal microscopy analysis, after incubation of cells in the absence or presence of the different factors, they were washed twice with PBS and the cellular fluorescence intensity was visualized after 30 min of incubation with […] DCFH-DA by using the same confocal microscopy described above. The analysis results were illustrated in FIGS. 2-4. […]
The influences of hepacin on mice-derived once-activated HSC-T6 line were studied. […] The luciferase activity was determined with or without 10, 5, 1 nM of hepacin in the absence or presence of 2 ng/ml of transforming growth factor TGF-β. The effects of hepacin on generation of intracellular reactive oxygen species (ROS) in HSC-T6 were also analyzed.

Structure (SMILES): CC(C)=CCOc1ccc(C2=C(CC(C)C)C(=O)NC2=O)cc1 [Compound 2, 3-Isobutyl-4-[4-(3-methyl-2-butenyloxy)phenyl]-1H-pyrrole-2,5-dione]
- TGF-β mediated inflammation and fibrosis (TGF-β): Down Regulated TGF-β Mediated Inflammation and Fibrosis
- ROS scavenging (HSC-T6 cells): ROS Scavenger
